PMC3173463, “Discovery of Dual-Action Membrane-Anchored Modulators of Incretin Receptors” (PLoS ONE, 2011)
Where no end group is shown, it is not given here.

How the values were obtained:
HA-tagged GIP-R = HA-tagged GIP-R cell surface expression by ELISA; format: cell-based, human; settings: HEK 293, HA-GIPR, ELISA 48 hours after transfection, soluble ligand added 24 h after transfection; Figure 4A
Method: The impact of soluble peptide (A), tethered ligands (B) and the interaction between soluble and tethered ligands on HA-GIPR surface expression (C) was measured by ELISA. HEK 293 cells were transfected with a plasmid encoding the HA-tagged GIP-R, with or without increasing amounts of a tethered ligand cDNA. Twenty four hours after transfection, soluble ligands were added in selected wells, as indicated. In each experiment, receptor expression was evaluated 48 hours after transfection. […] Data represent the mean ± SEM from at least 4 independent experiments, each performed in 12 replicates. The expression of HA-GIPR in the absence vs presence of soluble or tethered ligand were compared by analysis of variance followed by Dunnett's post-test; significance, *, p<0.05; **, p<0.01.
The surface expression levels of myc-tagged tethered ligands or HA-tagged GIP-Rs were assessed using a previously-established procedure [15], [18]. HEK293 cells grown in 96-well clear Primaria plates (BD Biosciences, Bedford, MA) were transiently transfected with either pcDNA1.1 or a cDNA encoding the relevant epitope-tagged proteins (tethered ligand and/or GIP-R). […] Light absorbance at 450 nm was quantified as a measure of protein expression) using a SpectraMax^R microplate reader.

GIPR-CHE = assay: Confocal microscopy of GIPR-CHE subcellular distribution; format: cell-based, human; settings: HEK 293, 18 hours treatment, Figure 5A
Method: The impact of selected soluble peptides (A) and tethered ligands (B) on the subcellular distribution of GIPR-CHE was studied using confocal microscopy. HEK 293 cells were transiently transfected with a plasmid encoding the GIPR-CHE, with or without cDNA encoding a GFP-tagged tethered ligand. Twenty-four hours later, the cells were treated for 18 hours with a soluble peptide or the corresponding vehicle, as indicated. The subcellular distribution of receptor was then visualized.
Cells were transfected with plasmids encoding GIPR-CHE and tEXE4-GFP or tGLP1-GFP. Twenty-four hours later, the cells were treated for 18 h with media containing 100 nM of soluble GIP, followed by confocal microscopy imaging.
HEK293 cells were plated at a density of 150,000 cells per dish onto poly-L-lysine coated 35 mm glass bottom dishes (MatTek Corporation, Ashland, MA) and grown for 1 day to ∼60–80% confluency. Cells were then transfected with cDNA encoding GIPR-CHE and a GFP-tagged tethered ligand construct. In some experiments, soluble peptides were added 24 hours after transfection and cells were incubated at 37°C for an additional 18–24 hours before imaging. Forty eight hours following transfection, the cells were washed once with PBS and fixed with 4% paraformaldehyde in PBS for 10 minutes. […]

GLP-1R = molecular target: T1, GLP-1R (Homo sapiens, UniProt P43220); assay: CRE luciferase reporter gene assay, membrane-tethered ligand co-transfected with GLP-1R; format: cell-based; settings: CRE6X-LUC, relative to wild-type tethered construct; Figure 2A-B
T1 construct: expressed in transfected cells; host or cells: HEK293 cells, transient transfection, pcDNA1.1 plasmid
Method: Figure 2 Activity and selectivity of wild-type and G^7/K^7 derivatives of tGLP-1 and tEXE4. […] HEK 293 cells were transiently transfected with cDNAs encoding the GLP-1R or GIP-R, a tethered ligand, and a CRE6X-LUC reporter gene construct. Twenty four hours post-transfection, ligand-induced activity was quantified as described in Methods. […] Data represent the mean ± SEM from at least 4 independent experiments, each performed at least in quadruplicate.
Receptor-mediated signaling was assessed using a previously described luciferase assay, [18]. In brief, HEK293 cells were plated at a density of 3000–6000 cells per well into clear-bottom, white 96-well plates and grown for 1–2 days to ∼80% confluency. […] Following ligand stimulation, the medium was gently aspirated, the cells were lysed and luciferase activity was quantified using a TopCount NTX after addition of Steadylite^R reagent (PerkinElmer, Boston, MA). […] Substrate cleavage (an index of β-galactosidase expression was quantified by measurement of optical density at 420 nm using a SpectraMax^R microplate reader (Molecular Devices, Sunnyvale, CA). Corresponding values were used to normalize the luciferase data for transfection efficiency.

GIP-R = molecular target: T2, GIP-R (Homo sapiens, UniProt P48546); assay: CRE luciferase reporter gene assay, soluble ligands on GIP-R expressing cells; format: cell-based; settings: soluble peptides, 6 hours stimulation; Figure 3B
T2 construct: expressed in transfected cells; host or cells: HEK293 cells, transient transfection, pcDNA1.1 plasmid
T2 sequence (P48546 22-466): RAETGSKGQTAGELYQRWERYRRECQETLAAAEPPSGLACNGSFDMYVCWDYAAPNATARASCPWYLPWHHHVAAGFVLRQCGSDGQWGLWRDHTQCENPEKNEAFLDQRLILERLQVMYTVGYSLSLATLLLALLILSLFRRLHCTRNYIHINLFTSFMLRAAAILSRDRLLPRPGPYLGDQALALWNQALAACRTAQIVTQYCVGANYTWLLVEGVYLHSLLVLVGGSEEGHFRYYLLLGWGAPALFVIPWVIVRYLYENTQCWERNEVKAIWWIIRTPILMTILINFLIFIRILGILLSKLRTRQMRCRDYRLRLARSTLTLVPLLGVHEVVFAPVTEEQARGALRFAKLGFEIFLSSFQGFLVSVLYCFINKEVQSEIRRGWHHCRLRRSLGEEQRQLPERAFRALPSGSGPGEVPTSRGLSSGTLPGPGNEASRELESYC
Method: HEK293 cells were transiently transfected with cDNAs encoding the indicated receptor and a CRE6X-LUC reporter gene construct. Twenty four hours post-transfection, cells were stimulated for 6 hours with soluble peptides; ligand-induced activity was then quantified.
Receptor-mediated signaling was assessed using a previously described luciferase assay [15], [18]. In brief, HEK293 cells were plated at a density of 3000–6000 cells per well into clear-bottom, white 96-well plates and grown for 1–2 days to ∼80% confluency. Cells were then transiently transfected using Lipofectamine^R reagent (Invitrogen, Carlsbad, CA) with cDNAs encoding (i) a GPCR (or the empty expression vector), (ii) a tethered ligand (where applicable), (iii) the CRE6X-LUC reporter gene and (iv) β-galactosidase (as a control for transfection efficiency). For experiments investigating the agonist function of soluble peptides, tethered ligand cDNA was not included in the transfection reaction. Twenty four hours after transfection, cells were incubated with or without selected soluble peptide in serum-free medium for 6 hours. Following ligand stimulation, the medium was gently aspirated, the cells were lysed and luciferase activity was quantified using a TopCount NTX after addition of Steadylite^R reagent (PerkinElmer, Boston, MA).

T1 sequence (P43220 24-463): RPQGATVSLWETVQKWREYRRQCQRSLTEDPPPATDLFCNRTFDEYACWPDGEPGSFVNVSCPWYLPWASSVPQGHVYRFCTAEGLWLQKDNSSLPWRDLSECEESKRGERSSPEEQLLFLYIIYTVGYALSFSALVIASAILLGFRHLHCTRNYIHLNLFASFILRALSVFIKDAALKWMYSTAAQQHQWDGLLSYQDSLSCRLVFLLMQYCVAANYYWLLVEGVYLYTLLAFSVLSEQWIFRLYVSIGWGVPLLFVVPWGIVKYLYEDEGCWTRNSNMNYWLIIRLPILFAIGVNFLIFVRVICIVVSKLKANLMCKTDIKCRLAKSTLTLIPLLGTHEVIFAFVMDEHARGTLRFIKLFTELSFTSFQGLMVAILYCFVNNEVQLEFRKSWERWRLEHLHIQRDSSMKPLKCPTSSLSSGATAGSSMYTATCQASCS

| agonist activity of soluble peptide at the GIP-R (GIP-R) | Substance | GIP-R surface expression after prolonged incubation with soluble ligand (HA-tagged GIP-R) | GIPR-CHE subcellular distribution after soluble peptide (GIPR-CHE) | tethered ligand-induced activity at the GLP-1R (GLP-1R) |
| --- | --- | --- | --- | --- |
|  | glucose-dependent insulinotropic polypeptide [GIP] | markedly reduced | massive GIPR-CHE endocytosis |  |
|  | [G^7]tGLP-1: membrane-tethered GLP-1 with glycine at position 7 (GAEGTFTSDVSSYLEGQAAKEFIAWLVKGRG; also: fused with epitope tag, linkers, membrane-anchoring sequence; UniProt P01275 98-128, looked up, variant H7G) |  |  | activity comparable to the corresponding unmodified ligands |
| even lower potency agonist | glucagon-like peptide-1 [GLP-1] | no effect |  |  |
